Reference: the supplement of paper PMC11208160

assay: recombinant UMI read abundance after kanamycin selection (control-corrected) (log10(CPM+1)); higher = more efficient recombination; extreme values may be limits of the assay; sequences stand for … in AGTGCAGAGAAAATCGGCCAGTTTTCTCTGCCTGCAGTCCGCATGCCGTGGGACCCCTTGGGTTCTAACCTGTTGCCTAGATTTATGCAGCGGACTGCCTTTCTCCCAAAGTGATAAACCGG…AGGTTGGTTTCACT; site = the 11-nt donor
How it was run: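 Sequenced counts of recombinant UMIs were turned into CPM, averaged across replicates and scaled with control-derived factors. The reported figure is log10(CPM+1). Those UMIs, each 12 nt long, tagged donor and donor-binding-loop pairs on a plasmid with a promoterless kanamycin gene, screened as a pool in Escherichia coli with IPTG (0.07 mM) plus kanamycin or without selection.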
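Also: IS621 bridge recombinase in Escherichia coli cells against a fixed T5 target plasmid.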

Sequence	recombinant UMI read abundance (log10)
GTGATGGCATGGACCGGTTTTCCCGGTAATCCGTATTTGAT (site GTGATGGCTAT)	2.31
GTGATTCCATGGACCGGTTTTCCCGGTAATCCGTATTTGAC (site GTGATTCCTGT)	1.95
GTGCAAGCATGGACCGGTTTTCCCGGTAATCCGTATTTGGT (site GTGCAAGCTAC)	1.28
GTGCAAGCATGGACCGGTTTTCCCGGTAATCCGTATTTGGT (site GTGCACGCTAC)	0.00225
GTGCAAGCATGGACCGGTTTTCCCGGTAATCCGTATTTGGT (site GTGCAGGCTAC)	0.602
GTGCAAGCATGGACCGGTTTTCCCGGTAATCCGTATTTGGT (site GTGCATGCTAC)	0.222
GTGCAGGCATGGACCGGTTTTCCCGGTAATCCGTATTTGTC (site GTGCAGGCTGA)	2.44
GTGCATCCATGGACCGGTTTTCCCGGTAATCCGTATTTGCC (site GTGCATCCTGG)	0.749
GTGCATCCATGGACCGGTTTTCCCGGTAATCCGTATTTGGT (site GTGCATACTAC)	0.0234
GTGCATCCATGGACCGGTTTTCCCGGTAATCCGTATTTGGT (site GTGCATCCTAC)	0.56
GTGCATCCATGGACCGGTTTTCCCGGTAATCCGTATTTGGT (site GTGCATGCTAC)	0
GTGCATCCATGGACCGGTTTTCCCGGTAATCCGTATTTGGT (site GTGCATTCTAC)	0.438
GTGCATGCATGGACCGGTTTTCCCGGTAATCCGTATTTGAT (site GTGCATGCTAA)	0.00938
GTGCATGCATGGACCGGTTTTCCCGGTAATCCGTATTTGAT (site GTGCATGCTAC)	0.265
GTGCATGCATGGACCGGTTTTCCCGGTAATCCGTATTTGAT (site GTGCATGCTAG)	0.649
GTGCATGCATGGACCGGTTTTCCCGGTAATCCGTATTTGAT (site GTGCATGCTAT)	2.34
GTGCATGCATGGACCGGTTTTCCCGGTAATCCGTATTTGGG (site GTGCATGCTAC)	0.00412
GTGCATGCATGGACCGGTTTTCCCGGTAATCCGTATTTGGG (site GTGCATGCTCC)	0.746
GTGCATGCATGGACCGGTTTTCCCGGTAATCCGTATTTGGG (site GTGCATGCTGC)	0
GTGCATGCATGGACCGGTTTTCCCGGTAATCCGTATTTGGG (site GTGCATGCTTC)	0.0162
GTGCATGCATGGACCGGTTTTCCCGGTAATCCGTATTTGTT (site GTGCATGCTAA)	2.04
GTGCATGCATGGACCGGTTTTCCCGGTAATCCGTATTTGTT (site GTGCATGCTAC)	0.0189
GTGCATGCATGGACCGGTTTTCCCGGTAATCCGTATTTGTT (site GTGCATGCTAG)	1.48
GTGCATGCATGGACCGGTTTTCCCGGTAATCCGTATTTGTT (site GTGCATGCTAT)	1.31
GTGCATTCATGGACCGGTTTTCCCGGTAATCCGTATTTGGT (site GTGCATACTAC)	0.361

Sequence	recombinant UMI read abundance (log10)
GTGCATTCATGGACCGGTTTTCCCGGTAATCCGTATTTGGT (site GTGCATCCTAC)	0.0125
GTGCATTCATGGACCGGTTTTCCCGGTAATCCGTATTTGGT (site GTGCATGCTAC)	0
GTGCATTCATGGACCGGTTTTCCCGGTAATCCGTATTTGGT (site GTGCATTCTAC)	1.99
GTGCCTGCATGGACCGGTTTTCCCGGTAATCCGTATTTGGT (site GTGCATGCTAC)	0.0028
GTGCCTGCATGGACCGGTTTTCCCGGTAATCCGTATTTGGT (site GTGCCTGCTAC)	0.328
GTGCCTGCATGGACCGGTTTTCCCGGTAATCCGTATTTGGT (site GTGCGTGCTAC)	0.00453
GTGCCTGCATGGACCGGTTTTCCCGGTAATCCGTATTTGGT (site GTGCTTGCTAC)	0.00506
GTGCTCACATGGACCGGTTTTCCCGGTAATCCGTATTTGAT (site GAGCTCACTAT)	0.557
GTGCTCACATGGACCGGTTTTCCCGGTAATCCGTATTTGAT (site GCGCTCACTAT)	0.322
GTGCTCACATGGACCGGTTTTCCCGGTAATCCGTATTTGAT (site GGGCTCACTAT)	0.0156
GTGCTCACATGGACCGGTTTTCCCGGTAATCCGTATTTGAT (site GTGCTCACTAT)	1.9
GTGCTTACATGGACCGGTTTTCCCGGTAATCCGTATTTGGC (site GTGCTTACTGC)	1.9
GTGGAGCCATGGACCGGTTTTCCCGGTAATCCGTATTTGAT (site GTGGAGCCTAT)	0.00342
GTGGATACATGGACCGGTTTTCCCGGTAATCCGTATTTGTG (site GTGGATACTCA)	1.92
GTGGGGGCATGGACCGGTTTTCCCGGTAATCCGTATTTGTG (site GTGGAGGCTCA)	1.07
GTGGGGGCATGGACCGGTTTTCCCGGTAATCCGTATTTGTG (site GTGGCGGCTCA)	0.0124
GTGGGGGCATGGACCGGTTTTCCCGGTAATCCGTATTTGTG (site GTGGGGGCTCA)	0.984
GTGGGGGCATGGACCGGTTTTCCCGGTAATCCGTATTTGTG (site GTGGTGGCTCA)	0.0315
GTGGGTTCATGGACCGGTTTTCCCGGTAATCCGTATTTGCA (site GTGGGTTCTTG)	2.55
GTGGTTCCATGGACCGGTTTTCCCGGTAATCCGTATTTGGT (site GTAGTTCCTAC)	0.553
GTGGTTCCATGGACCGGTTTTCCCGGTAATCCGTATTTGGT (site GTCGTTCCTAC)	0
GTGGTTCCATGGACCGGTTTTCCCGGTAATCCGTATTTGGT (site GTGGTTCCTAC)	0.0114
GTGGTTCCATGGACCGGTTTTCCCGGTAATCCGTATTTGGT (site GTTGTTCCTAC)	0.0137
GTGTATGCATGGACCGGTTTTCCCGGTAATCCGTATTTGGT (site GTGAATGCTAC)	0.483
GTGTATGCATGGACCGGTTTTCCCGGTAATCCGTATTTGGT (site GTGCATGCTAC)	1.24

Sequence	recombinant UMI read abundance (log10)
GTGTATGCATGGACCGGTTTTCCCGGTAATCCGTATTTGGT (site GTGGATGCTAC)	0
GTGTATGCATGGACCGGTTTTCCCGGTAATCCGTATTTGGT (site GTGTATGCTAC)	2
GTGTCATCATGGACCGGTTTTCCCGGTAATCCGTATTTGCA (site GTGTCATCTTG)	0.804
GTGTTGCCATGGACCGGTTTTCCCGGTAATCCGTATTTGGC (site GTGTTGCCTGC)	0
GTGTTTACATGGACCGGTTTTCCCGGTAATCCGTATTTGCG (site GTGTTTACTCG)	1.66
GTTAACTCATGGACCGGTTTTCCCGGTAATCCGTATTTGAA (site GTTAACTCTTT)	1.85
GTTAAGGCATGGACCGGTTTTCCCGGTAATCCGTATTTGAG (site GTTAAGGCTCT)	1.41
GTTACAACATGGACCGGTTTTCCCGGTAATCCGTATTTGGC (site GTTAAAACTGC)	0.0108
GTTACAACATGGACCGGTTTTCCCGGTAATCCGTATTTGGC (site GTTACAACTGC)	0
GTTACAACATGGACCGGTTTTCCCGGTAATCCGTATTTGGC (site GTTAGAACTGC)	0
GTTACAACATGGACCGGTTTTCCCGGTAATCCGTATTTGGC (site GTTATAACTGC)	0
GTTACGTCATGGACCGGTTTTCCCGGTAATCCGTATTTGTA (site GTTACGTCTTA)	1.22
GTTACTGCATGGACCGGTTTTCCCGGTAATCCGTATTTGCC (site GATACTGCTGG)	0
GTTACTGCATGGACCGGTTTTCCCGGTAATCCGTATTTGCC (site GCTACTGCTGG)	0
GTTACTGCATGGACCGGTTTTCCCGGTAATCCGTATTTGCC (site GGTACTGCTGG)	0.914
GTTACTGCATGGACCGGTTTTCCCGGTAATCCGTATTTGCC (site GTTACTGCTGG)	1.83
GTTAGCTCATGGACCGGTTTTCCCGGTAATCCGTATTTGTG (site GTTAGCTCTCA)	0.415
GTTAGTACATGGACCGGTTTTCCCGGTAATCCGTATTTGGC (site GTTAGAACTGC)	0
GTTAGTACATGGACCGGTTTTCCCGGTAATCCGTATTTGGC (site GTTAGCACTGC)	0
GTTAGTACATGGACCGGTTTTCCCGGTAATCCGTATTTGGC (site GTTAGGACTGC)	0
GTTAGTACATGGACCGGTTTTCCCGGTAATCCGTATTTGGC (site GTTAGTACTGC)	0.861
GTTATACCATGGACCGGTTTTCCCGGTAATCCGTATTTGCT (site GTTATACCTAG)	0
GTTATAGCATGGACCGGTTTTCCCGGTAATCCGTATTTGTC (site GTTATAGCTGA)	2.53
GTTCCAACATGGACCGGTTTTCCCGGTAATCCGTATTTGTA (site GATCCAACTTA)	0.0199
GTTCCAACATGGACCGGTTTTCCCGGTAATCCGTATTTGTA (site GCTCCAACTTA)	0.287
